Results taken from patent US20260285850A1, “SUBSTITUTED OXAZOLIDINONES AND IMIDAZOLINONES AS HERBICIDES” (FMC CORPORATION, priority 2023, published 2026).

Legend:
Format in all cases: in vivo
[1] = system: barnyardgrass (Echinochloa crus-galli); test: Test A preemergence soil spray, visual injury rating 0-100; settings: 10 days, 0 = no effect, 100 = complete control
Procedure, shortened: (§1)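 Compound in a non-phytotoxic, surfactant-containing solvent is applied either as a directed soil spray before seedlings emerge or onto emerged plants 2-10 cm tall; pots hold a loam-sand blend. Plants grow 10 days under greenhouse conditions and are rated by eye against untreated controls (0 no effect, 100 complete control).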

[2] = system: blackgrass (Alopecurus myosuroides); test: as above; settings: 10 days, 0 = no effect, 100 = complete control
Procedure, shortened: as §1

[3] = system: corn (Zea mays); test: as above; settings: 10 days, 0 = no effect, 100 = complete control
Procedure, shortened: as §1

[4] = system: foxtail, giant (giant foxtail, Setaria faberi); test: as above; settings: 10 days, 0 = no effect, 100 = complete control
Procedure, shortened: as §1

[5] = system: kochia (Bassia scoparia); test: as above; settings: 10 days, 0 = no effect, 100 = complete control
Procedure, shortened: as §1

[6] = system: oat, wild (wild oat, Avena fatua); test: as above; settings: 10 days, 0 = no effect, 100 = complete control
Procedure, shortened: as §1

[7] = system: palmer (palmer amaranth, palmer pigweed, Amaranthus palmeri); test: as above; settings: 10 days, 0 = no effect, 100 = complete control
Procedure, shortened: as §1

[8] = system: ragweed (common ragweed, Ambrosia artemisiifolia); test: as above; settings: 10 days, 0 = no effect, 100 = complete control
Procedure, shortened: as §1

[9] = system: ryegrass, Italian (italian ryegrass, Lolium multiflorum); test: as above; settings: 10 days, 0 = no effect, 100 = complete control
Procedure, shortened: as §1

[10] = system: soybean (Glycine max); test: as above; settings: 10 days, 0 = no effect, 100 = complete control
Procedure, shortened: as §1

[11] = system: wheat (Triticum aestivum); test: as above; settings: 10 days, 0 = no effect, 100 = complete control
Procedure, shortened: as §1

[12] = system: barnyardgrass (Echinochloa crus-galli); test: Test A postemergence application, visual injury rating 0-100; settings: Postemergence, 10 days, 0 is no effect, 100 is complete control
Procedure, shortened: as §1

[13] = system: blackgrass (Alopecurus myosuroides); test: as above; settings: Postemergence, 10 days, 0 is no effect, 100 is complete control
Procedure, shortened: as §1

[14] = system: corn (Zea mays); test: as above; settings: Postemergence, 10 days, 0 is no effect, 100 is complete control
Procedure, shortened: as §1

[15] = system: foxtail, giant (giant foxtail, Setaria faberi); test: as above; settings: 10 days, 0 is no effect, 100 is complete control
Procedure, shortened: as §1

[16] = system: galium (catchweed bedstraw, Galium aparine); test: as above; settings: Postemergence, 10 days, 0 is no effect, 100 is complete control
Procedure, shortened: as §1

[17] = system: horseweed (Erigeron canadensis); test: as above; settings: Postemergence, 10 days, 0 is no effect, 100 is complete control
Procedure, shortened: as §1

[18] = system: kochia (Bassia scoparia); test: as above; settings: Postemergence, 10 days, 0 is no effect, 100 is complete control
Procedure, shortened: as §1

[19] = system: oat, wild (wild oat, Avena fatua); test: as above; settings: Postemergence, 10 days, 0 is no effect, 100 is complete control
Procedure, shortened: as §1

[20] = system: palmer (palmer amaranth, palmer pigweed, Amaranthus palmeri); test: as above; settings: Postemergence, 10 days, 0 is no effect, 100 is complete control
Procedure, shortened: as §1

[21] = system: ragweed (common ragweed, Ambrosia artemisiifolia); test: as above; settings: Postemergence, 10 days, 0 is no effect, 100 is complete control
Procedure, shortened: as §1

[22] = system: ryegrass, Italian (italian ryegrass, Lolium multiflorum); test: as above; settings: Postemergence, 10 days, 0 is no effect, 100 is complete control
Procedure, shortened: as §1

[23] = system: soybean (Glycine max); test: as above; settings: Postemergence, 10 days, 0 is no effect, 100 is complete control
Procedure, shortened: as §1

[24] = system: wheat (Triticum aestivum); test: as above; settings: Postemergence, 10 days, 0 is no effect, 100 is complete control
Procedure, shortened: as §1

[25] = system: barnyardgrass (Echinochloa crusgalli); test: Test B flooded paddy test, visual plant response rating 0-100; settings: 250 g ai/ha, Flood, applied to paddy water, evaluated after 13 days
Procedure, shortened: (§2)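 Visual evaluation after 13 days. Water-applied treatment, 3 cm flood depth held constant, plants at 2-leaf stage at treatment.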

[26] = system: ducksalad (Heteranthera limosa); test: as above; settings: 250 g ai/ha, Flood, applied to paddy water, evaluated after 13 days
Procedure, shortened: as §2

[27] = system: rice (Oryza sativa); test: as above; settings: 250 g ai/ha, Flood, applied to paddy water, evaluated after 13 days
Procedure, shortened: as §2

[28] = system: sedge, umbrella (small-flower umbrella sedge, Cyperus difformis); test: as above; settings: 250 g ai/ha, Flood, applied to paddy water, evaluated after 13 days
Procedure, shortened: as §2

## CC1(C(=O)N[C@H]2C=C[C@@H](C(=O)O)C2)CN(c2cc(F)cc(F)c2)C(=O)O1 (stereo partly drawn) [Compound 51, (1S,4R)-4-[[[3-(3,5-Difluorophenyl)-5-methyl-2-oxo-5-oxazolidinyl]carbonyl]amino]-2-cyclopentene-1-carboxylic acid]
[1]; 125 g ai/ha
  Barnyardgrass plant response rating (0 to 100 scale): 100
[1]; 500 g ai/ha
  Barnyardgrass plant response rating (0 to 100 scale): 100
[2]; 125 g ai/ha
  Blackgrass plant response rating (0 to 100 scale): 80
[2]; 500 g ai/ha
  Blackgrass plant response rating (0 to 100 scale): 90
[3]; 125 g ai/ha
  Corn plant response rating (0 to 100 scale): 90
[3]; 500 g ai/ha
  Corn plant response rating (0 to 100 scale): 90
[4]; 125 g ai/ha
  Foxtail, Giant plant response rating (0 to 100 scale): 90
[4]; 500 g ai/ha
  Foxtail, Giant plant response rating (0 to 100 scale): 100
[5]; 125 g ai/ha
  Kochia plant response rating (0 to 100 scale): 90
[5]; 500 g ai/ha
  Kochia plant response rating (0 to 100 scale): 100
[6]; 125 g ai/ha
  Oat, Wild plant response rating (0 to 100 scale): 90
[6]; 500 g ai/ha
  Oat, Wild plant response rating (0 to 100 scale): 90
[7]; 125 g ai/ha
  Amaranth, Palmer plant response rating (0 to 100 scale): 90
[7]; 500 g ai/ha
  Amaranth, Palmer plant response rating (0 to 100 scale): 100
[8]; 125 g ai/ha
  Ragweed plant response rating (0 to 100 scale): 70
[8]; 500 g ai/ha
  Ragweed plant response rating (0 to 100 scale): 80
[9]; 125 g ai/ha
  Ryegrass, Italian plant response rating (0 to 100 scale): 90
[9]; 500 g ai/ha
  Ryegrass, Italian plant response rating (0 to 100 scale): 100
[10]; 125 g ai/ha
  Soybean plant response rating (0 to 100 scale): 70
[10]; 500 g ai/ha
  Soybean plant response rating (0 to 100 scale): 100
[11]; 125 g ai/ha
  Wheat plant response rating (0 to 100 scale): 100
[11]; 500 g ai/ha
  Wheat plant response rating (0 to 100 scale): 100
[12]; 125 g ai/ha
  Barnyardgrass plant response rating (0 to 100 scale): 100
[12]; 500 g ai/ha
  Barnyardgrass plant response rating (0 to 100 scale): 100
[13]; 125 g ai/ha
  Blackgrass plant response rating (0 to 100 scale): 90
[13]; 500 g ai/ha
  Blackgrass plant response rating (0 to 100 scale): 100
[14]; 125 g ai/ha
  Corn plant response rating (0 to 100 scale): 90
[14]; 500 g ai/ha
  Corn plant response rating (0 to 100 scale): 90
[15]; 125 g ai/ha
  Foxtail, Giant plant response rating (0 to 100 scale): 90
[15]; 500 g ai/ha
  Foxtail, Giant plant response rating (0 to 100 scale): 90
[16]; 125 g ai/ha
  Galium plant response rating (0 to 100 scale): 70
[16]; 500 g ai/ha
  Galium plant response rating (0 to 100 scale): 70
[17]; 125 g ai/ha
  Horseweed plant response rating (0 to 100 scale): 80
[17]; 500 g ai/ha
  Horseweed plant response rating (0 to 100 scale): 100
[18]; 125 g ai/ha
  Kochia plant response rating (0 to 100 scale): 80
[18]; 500 g ai/ha
  Kochia plant response rating (0 to 100 scale): 80
[19]; 125 g ai/ha
  Oat, Wild plant response rating (0 to 100 scale): 90
[19]; 500 g ai/ha
  Oat, Wild plant response rating (0 to 100 scale): 90
[20]; 125 g ai/ha
  Amaranth, Palmer / Pigweed, Palmer plant response rating (0 to 100 scale): 90
[20]; 500 g ai/ha
  Amaranth, Palmer / Pigweed, Palmer plant response rating (0 to 100 scale): 90
[21]; 125 g ai/ha
  Ragweed plant response rating (0 to 100 scale): 60
[21]; 500 g ai/ha
  Ragweed plant response rating (0 to 100 scale): 70
[22]; 125 g ai/ha
  Ryegrass, Italian plant response rating (0 to 100 scale): 70
[22]; 500 g ai/ha
  Ryegrass, Italian plant response rating (0 to 100 scale): 70
[23]; 125 g ai/ha
  Soybean plant response rating (0 to 100 scale): 70
[23]; 500 g ai/ha
  Soybean plant response rating (0 to 100 scale): 100
[24]; 125 g ai/ha
  Wheat plant response rating (0 to 100 scale): 90
[24]; 500 g ai/ha
  Wheat plant response rating (0 to 100 scale): 90
[25]
  Plant response rating, Barnyardgrass (0 to 100 scale, 0 is no effect and 100 is complete control): 75
[26]
  Plant response rating, Ducksalad (0 to 100 scale, 0 is no effect and 100 is complete control): 60
[27]
  Plant response rating, Rice (0 to 100 scale, 0 is no effect and 100 is complete control): 60
[28]
  Plant response rating, Sedge, Umbrella (0 to 100 scale, 0 is no effect and 100 is complete control): 60
